Holding throughout (test): pIC50, kinobeads binding competition
One test addresses T1, UniProt Q13188.
T1 sequence (whole entry): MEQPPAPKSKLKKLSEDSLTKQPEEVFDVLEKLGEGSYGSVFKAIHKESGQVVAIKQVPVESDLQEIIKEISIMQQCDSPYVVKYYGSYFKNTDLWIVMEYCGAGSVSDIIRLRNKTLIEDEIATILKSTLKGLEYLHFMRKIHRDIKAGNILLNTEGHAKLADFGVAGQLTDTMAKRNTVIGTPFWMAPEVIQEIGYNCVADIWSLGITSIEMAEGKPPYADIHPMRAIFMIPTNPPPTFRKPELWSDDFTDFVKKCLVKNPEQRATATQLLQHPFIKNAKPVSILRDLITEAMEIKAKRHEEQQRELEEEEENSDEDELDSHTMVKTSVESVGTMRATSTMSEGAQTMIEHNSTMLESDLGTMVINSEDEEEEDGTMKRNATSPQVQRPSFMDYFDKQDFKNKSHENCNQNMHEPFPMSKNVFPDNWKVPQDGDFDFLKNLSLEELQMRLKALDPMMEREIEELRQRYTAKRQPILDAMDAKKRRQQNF
The method in brief:
(§1)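 Nine compound concentrations were tested, starting at 30 μM in 1:4 steps on live Jurkat cells (60 min, 37 °C, then lysis) or in 1:5 steps on Jurkat lysate or a 1:1:1:1 HEK293/K-562/HepG2/placenta lysate mix (60 min, 4 °C). Kinobeads-bound proteins were digested and quantified with TMT10 LC-MS/MS. pIC50 values are from logistic dose-response fits in the R drc package of fold changes relative to vehicle, from biological duplicates.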

The target in a further test is PIM1 (UniProt P11309). Conditions: cell material: Lysate mix. The method in brief:
as §1

The target of the next test is T2, UniProt Q99759.
T2 sequence (whole entry): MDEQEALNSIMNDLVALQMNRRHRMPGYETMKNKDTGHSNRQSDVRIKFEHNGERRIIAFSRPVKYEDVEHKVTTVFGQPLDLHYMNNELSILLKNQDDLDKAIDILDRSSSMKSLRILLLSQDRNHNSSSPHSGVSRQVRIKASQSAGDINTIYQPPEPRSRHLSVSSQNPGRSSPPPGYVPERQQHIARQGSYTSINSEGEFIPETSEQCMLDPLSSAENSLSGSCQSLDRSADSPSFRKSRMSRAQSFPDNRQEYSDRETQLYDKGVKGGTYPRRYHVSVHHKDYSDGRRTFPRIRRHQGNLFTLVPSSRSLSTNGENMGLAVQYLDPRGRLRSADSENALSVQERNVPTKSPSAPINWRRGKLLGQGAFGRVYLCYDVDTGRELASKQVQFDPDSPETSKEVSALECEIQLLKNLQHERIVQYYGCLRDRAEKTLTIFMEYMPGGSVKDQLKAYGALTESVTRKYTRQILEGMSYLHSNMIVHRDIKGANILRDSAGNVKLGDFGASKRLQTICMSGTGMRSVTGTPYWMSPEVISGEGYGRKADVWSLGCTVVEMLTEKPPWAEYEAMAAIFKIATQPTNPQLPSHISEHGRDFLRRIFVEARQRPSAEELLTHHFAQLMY
The method in brief:
as §1

The target in another test is T3, PIP4K2A (UniProt P48426).
T3 sequence (whole entry): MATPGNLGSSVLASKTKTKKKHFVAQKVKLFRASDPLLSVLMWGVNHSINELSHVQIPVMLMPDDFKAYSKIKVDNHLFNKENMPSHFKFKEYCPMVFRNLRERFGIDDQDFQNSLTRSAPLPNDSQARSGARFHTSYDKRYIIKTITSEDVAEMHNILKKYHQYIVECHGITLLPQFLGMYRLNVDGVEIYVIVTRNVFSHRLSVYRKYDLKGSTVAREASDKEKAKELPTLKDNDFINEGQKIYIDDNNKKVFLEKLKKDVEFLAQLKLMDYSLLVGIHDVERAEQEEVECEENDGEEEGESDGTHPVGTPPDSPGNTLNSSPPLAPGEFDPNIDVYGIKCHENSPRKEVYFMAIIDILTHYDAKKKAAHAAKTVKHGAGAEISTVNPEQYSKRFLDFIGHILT
The method in brief:
as §1

The next test addresses PLK1 (UniProt P53350). The method in brief:
as §1

For the next test, the target named is DAPK3 (UniProt O43293). The method in brief: as §1
A further test deals with UniProt Q13131. The method in brief: as §1
A further test concerns the target PAK4 (UniProt O96013). The method in brief:
as §1

The next test concerns the target EPHA4 (UniProt P54764). Conditions: cell material: Lysate mix. The method in brief:
as §1

For the next test, the target named is T4, PRKX (UniProt P51817).
T4 sequence (whole entry): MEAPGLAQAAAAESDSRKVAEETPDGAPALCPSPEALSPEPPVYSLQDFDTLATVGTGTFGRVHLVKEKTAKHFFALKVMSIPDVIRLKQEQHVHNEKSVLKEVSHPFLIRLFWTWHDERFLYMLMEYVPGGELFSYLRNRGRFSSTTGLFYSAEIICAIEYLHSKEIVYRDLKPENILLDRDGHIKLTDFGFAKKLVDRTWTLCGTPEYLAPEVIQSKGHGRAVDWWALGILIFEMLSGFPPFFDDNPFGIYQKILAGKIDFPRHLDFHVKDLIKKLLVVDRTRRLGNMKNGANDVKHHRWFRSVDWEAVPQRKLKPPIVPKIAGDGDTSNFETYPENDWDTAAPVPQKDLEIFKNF
The method in brief:
as §1

Regarding `C#CCNC(=O)c1cc(Nc2cc(C)[nH]n2)nc(N2CCN(Cc3ccc(S(=O)(=O)F)cc3)CC2)n1`, the pIC50 is 5.6 on UniProt Q13188 (cell material: Lysate mix); below 4.52 at PIM1; below 4.52 at UniProt Q99759 (cell material: Lysate mix); below 4.52 on PIP4K2A (cell material: Lysate mix); below 4.52 at PLK1 (cell material: Lysate mix); 4.77 on DAPK3 (cell material: Lysate mix). For the same compound, the pIC50 at UniProt Q13131 (cell material: Lysate mix) is 6.3; on PAK4 (cell material: Lysate mix) it was 4.8; on EPHA4 it was below 4.52; at PRKX (cell material: Lysate mix), below 4.52.

For the compound `O=C(NCCNC(=O)c1cc(Nc2cc(C3CC3)[nH]n2)nc(N2CCN(Cc3ccc(S(=O)(=O)F)cc3)CC2)n1)OC1CC/C=C/CCC1` (stereo not drawn), the pIC50 is 5.6 at UniProt Q13188 (cell material: Jurkat cells); below 4.52 at UniProt Q13188 (cell material: Lysate mix); below 4.52 on PIM1; 4.88 at UniProt Q99759 (cell material: Jurkat cells); below 4.52 on UniProt Q99759 (cell material: Jurkat lysate); below 4.52 on UniProt Q99759 (cell material: Lysate mix). Moreover, the pIC50 was below 4.52 on PIP4K2A (cell material: Jurkat cells); below 4.52 at PIP4K2A (cell material: Jurkat lysate); below 4.52 on PIP4K2A (cell material: Lysate mix); 5.85 on PLK1 (cell material: Jurkat cells); below 4.52 on PLK1 (cell material: Jurkat lysate); below 4.52 at PLK1 (cell material: Lysate mix). For the same compound, the pIC50 is below 4.52 on DAPK3 (cell material: Jurkat cells); below 4.52 on DAPK3 (cell material: Lysate mix); 6.8 at UniProt Q13131 (cell material: Jurkat cells); 5.32 on UniProt Q13131 (cell material: Jurkat lysate); 5.56 on UniProt Q13131 (cell material: Lysate mix); 6.17 on PAK4 (cell material: Jurkat cells). Further, the pIC50 at PAK4 (cell material: Jurkat lysate) is below 4.52; on PAK4 (cell material: Lysate mix), below 4.52; on EPHA4 it was below 4.52; on PRKX (cell material: Jurkat cells), 5.28; at PRKX (cell material: Jurkat lysate) it was below 4.52; at PRKX (cell material: Lysate mix), below 4.52.

In the case of `CCNC(=O)c1cc(Nc2cc(C3CC3)[nH]n2)nc(N2CCN(Cc3ccc(S(=O)(=O)F)cc3)CC2)n1`, the negative-log IC50 (pIC50) is 5.94 on UniProt Q13188 (cell material: Lysate mix); below 4.52 at PIM1; 5.08 on UniProt Q99759 (cell material: Lysate mix); below 4.52 on PIP4K2A (cell material: Lysate mix); below 4.52 at PLK1 (cell material: Lysate mix); 4.83 at DAPK3 (cell material: Lysate mix). In addition, the pIC50 at UniProt Q13131 (cell material: Lysate mix) was 7.03; on PAK4 (cell material: Lysate mix) it was 5.27; on EPHA4, below 4.52; at PRKX (cell material: Lysate mix), 5.

Regarding `Cc1cc(Nc2cc(C(=O)NCCNC(=O)OC3CC/C=C/CCC3)nc(N3CCN(Cc4ccc(S(=O)(=O)F)cc4)CC3)n2)n[nH]1` (stereo not drawn), the pIC50 on UniProt Q13188 (cell material: Lysate mix), at PIM1, at UniProt Q99759 (cell material: Lysate mix), at PIP4K2A (cell material: Lysate mix), at PLK1 (cell material: Lysate mix) and at DAPK3 (cell material: Lysate mix) was below 4.52 each time. The pIC50 on UniProt Q13131 (cell material: Lysate mix) was 5.24; on PAK4 (cell material: Lysate mix) it was below 4.52; on EPHA4 it was below 4.52; at PRKX (cell material: Lysate mix), below 4.52.

With `CCNC(=O)c1cc(Nc2cc(C)[nH]n2)nc(N2CCN(Cc3ccc(S(=O)(=O)F)cc3)CC2)n1`, the pIC50 on UniProt Q13188 (cell material: Lysate mix) is 5.64; at PIM1, below 4.52; at UniProt Q99759 (cell material: Lysate mix), below 4.52; on PIP4K2A (cell material: Lysate mix), below 4.52; at PLK1 (cell material: Lysate mix) it was below 4.52; on DAPK3 (cell material: Lysate mix), 5.14. In addition, the pIC50 at UniProt Q13131 (cell material: Lysate mix) was 6.97; on PAK4 (cell material: Lysate mix), 4.7; on EPHA4, below 4.52; on PRKX (cell material: Lysate mix), below 4.52.

`C#CCNC(=O)c1cc(Nc2cc(C3CC3)[nH]n2)nc(N2CCN(Cc3ccc(S(=O)(=O)F)cc3)CC2)n1`: the pIC50 was 6.3 at UniProt Q13188 (cell material: Jurkat cells); 5.64 on UniProt Q13188 (cell material: Jurkat lysate); 6.27 at UniProt Q13188 (cell material: Lysate mix); below 4.52 at PIM1; 5.8 at UniProt Q99759 (cell material: Jurkat cells); 4.72 on UniProt Q99759 (cell material: Jurkat lysate). The pIC50 was 5.16 at UniProt Q99759 (cell material: Lysate mix); 4.96 at PIP4K2A (cell material: Jurkat cells); below 4.52 at PIP4K2A (cell material: Jurkat lysate); below 4.52 on PIP4K2A (cell material: Lysate mix); 5.83 on PLK1 (cell material: Jurkat cells); below 4.52 on PLK1 (cell material: Jurkat lysate). Further, the negative-log IC50 (pIC50) on PLK1 (cell material: Lysate mix) is below 4.52; at DAPK3 (cell material: Lysate mix), below 4.52; at UniProt Q13131 (cell material: Jurkat cells), 6.64; on UniProt Q13131 (cell material: Jurkat lysate), 6.58; at UniProt Q13131 (cell material: Lysate mix), 7.2; on PAK4 (cell material: Jurkat cells) it was 5.78. The pIC50 on PAK4 (cell material: Jurkat lysate) is 5.19; at PAK4 (cell material: Lysate mix) it was 5.58; on EPHA4, below 4.52; on PRKX (cell material: Jurkat cells), 5.76; on PRKX (cell material: Jurkat lysate), below 4.52; on PRKX (cell material: Lysate mix) it was 5.26.

Values taken from the supplement of paper PMC12076712.
